From patent US20070255061A1, “5-Fluoro-, Chloro-and Cyano-Pyridin-2-Yl-Tetrazoles as Ligands of the Metabotropic Glutamate Receptor-5” (AstraZeneca AB, priority 2003, published 2007)
≈ marks a conversion by molar mass, not a printed value.

What was measured:
[1] = Aqueous solubility in 0.1 M phosphate buffer pH 7.4; type: physicochemical; conditions: for solubility at 24 h: 21 °C, aqueous buffer, thermodynamic from solid, 0.1 M phosphate buffer, pH 7.4, 20 to 22° C., read-out: aq. Solubility
Experimental: Duplicate of 1-2 mg of the test compound are incubated in 0.1 M phosphate buffer, pH 7.4, in 2 mL glass-vials on a plate bed shaker (IKA®-Schüttler MTS-4, IKA Labortechnik) at 300 rpm at a temperature of 20 to 22° C. for 24 hours. Non-dissolved material is centrifugated down from the saturated solution at 3000 rpm for 2×15 minutes at 22° C. (Multifuge® 3 S-R, Heraeus). The aqueous supernatant is transferred to glass-vials and aliquotes used for quantitative analysis using reversed HPLC with MS confirmation of compound identity. Quantification is performed by the UV-trace of the chromatogram against a calibration curve, 0-200 μM, of the test compound dissolved in DMSO at the wavelength of a positive inflection point of the UV spectrum. The reported values (aq. solubility) are the mean values of duplicate HPLC-analysis of two independent incubations.

human mGluR5d = molecular target: T1, human mGluR5d (Homo sapiens, UniProt P41594); test: FLIPR analysis of [Ca2+]i mobilization, antagonist activity; type: cell-based; conditions: cells expressing human mGluR5d, read-out: IC50 mGluR5
T1 construct: expressed in transfected cells; GHEK cells stably expressing the receptor are named only for the IP3 assay
T1 sequence (P41594 21-942 isoform P41594-3 limits assumed): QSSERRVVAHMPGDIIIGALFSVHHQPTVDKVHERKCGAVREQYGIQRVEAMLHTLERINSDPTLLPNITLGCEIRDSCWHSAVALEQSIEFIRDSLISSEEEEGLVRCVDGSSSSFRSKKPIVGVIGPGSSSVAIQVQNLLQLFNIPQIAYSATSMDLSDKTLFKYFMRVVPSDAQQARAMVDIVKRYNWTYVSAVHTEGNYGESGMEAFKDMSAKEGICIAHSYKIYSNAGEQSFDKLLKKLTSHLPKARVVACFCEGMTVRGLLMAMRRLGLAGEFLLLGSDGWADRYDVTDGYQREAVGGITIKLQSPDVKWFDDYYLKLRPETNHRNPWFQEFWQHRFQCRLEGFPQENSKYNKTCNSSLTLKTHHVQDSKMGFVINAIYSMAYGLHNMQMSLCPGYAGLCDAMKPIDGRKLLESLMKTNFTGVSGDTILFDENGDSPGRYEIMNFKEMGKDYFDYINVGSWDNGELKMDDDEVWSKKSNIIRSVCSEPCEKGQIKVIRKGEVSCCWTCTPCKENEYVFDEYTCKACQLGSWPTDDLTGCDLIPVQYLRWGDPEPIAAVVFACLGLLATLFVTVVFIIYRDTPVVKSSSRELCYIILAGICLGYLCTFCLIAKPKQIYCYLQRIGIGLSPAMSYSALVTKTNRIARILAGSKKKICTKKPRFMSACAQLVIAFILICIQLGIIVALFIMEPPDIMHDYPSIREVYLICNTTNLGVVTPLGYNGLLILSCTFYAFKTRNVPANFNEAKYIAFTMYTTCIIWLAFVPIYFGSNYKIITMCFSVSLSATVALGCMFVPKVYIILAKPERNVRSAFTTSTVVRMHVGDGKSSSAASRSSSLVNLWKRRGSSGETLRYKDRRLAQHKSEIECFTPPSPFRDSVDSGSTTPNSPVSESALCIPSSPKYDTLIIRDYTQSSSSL
Experimental: FLIPR experiments were done using a laser setting of 0.800 W and a 0.4 second CCD camera shutter speed. Each FLIPR experiment was initiated with 160 μl of buffer present in each well of the cell plate. After each addition of the compound, the fluorescence signal was sampled 50 times at 1 second intervals followed by 3 samples at 5 second intervals. Responses were measured as the peak height of the response within the sample period. EC50 and IC50 determinations were made from data obtained from 8-point concentration response curves (CRC) performed in duplicate. Agonist CRC were generated by scaling all responses to the maximal response observed for the plate. Antagonist block of the agonist challenge was normalized to the average response of the agonist challenge in 14 control wells on the same plate.
Cell cultures in the 96-well plates were loaded with a 4 μM solution of acetoxymethyl ester form of the fluorescent calcium indicator fluo-3 (Molecular Probes, Eugene, Oreg.) in 0.01% pluronic.
Each FLIPR experiment was initiated with 160 μl of buffer present in each well of the cell plate. […] After each addition the fluorescence signal was sampled 50 times at 1 second intervals followed by 3 samples at 5 second intervals. Responses were measured as the peak height of the response within the sample period. […]

[2] = Metabolic stability in pooled human liver microsomes; type: in vitro ADME; conditions: for h.mic. FH (fraction escaping hepatic clearance): 1 μM compound, 0.5 mg microsomal protein/mL, 37° C., calculated from halflife, fu=1; for human microsomal metabolic stability (h.mic. FH) compared to the unsubstituted analog (Z=H): incubated with human microsomes
Experimental: The compounds were incubated (at 1 μM) with characterized, pooled human liver microsomes (0.5 mg microsomal protein/mL incubation) at 37° C. in phosphate buffer (50 mM potassium phosphate, pH 7.4) The incubations were started by the addition of a cofactor (1 mM NADPH (Nicotinamide adenine dinucleotide phosphate in reduced form) and terminated by the addition of acetonitrile (1:1). The incubations were analyzed by LC/MS and a time curve for the disappearance of the parent compound was constructed. Control incubations without microsomes, or with acetonitrile addition before the addition of the cofactor, were used to check for non-enzymatic degradation/disappearance. […] The fraction escaping hepatic clearance, FH, given in %, was calculated from the hepatic clearance according to the following equation: [formula] Thus, the higher the FH, the more metabolically stable the compound. Solubility

| Structure (SMILES) | solubility at 24 h [1] [µM] | IC50 (human mGluR5d) [nM] | h.mic. FH (fraction escaping hepatic clearance) [2] [%] | increase in solubility compared to the corresponding bromo derivative (Z=Br) ([1]; aq. solubility) [fold] | human microsomal metabolic stability (h.mic. FH) compared to the unsubstituted analog (Z=H) [2] |
| --- | --- | --- | --- | --- | --- |
| N#Cc1cc(F)cc(-n2nnc(-c3ccccn3)n2)c1 [3-fluoro-5-(5-pyridin-2-yl-2H-tetrazol-2-yl)benzonitrile] | 43 (≈ 11.4 µg/mL) | 12 | 10 |  |  |
| N#Cc1cc(F)cc(-n2nnc(-c3ccc(F)cn3)n2)c1 [3-Fluoro-5-[5-(5-fluoropyridin-2-yl)-2H-tetrazol-2-yl]benzonitrile] | 4.3 (≈ 1.22 µg/mL) |  | 71 | 22 | significantly more stable |
| N#Cc1cc(F)cc(-n2nnc(-c3ccc(Br)cn3)n2)c1 [3-[5-(5-bromopyridin-2-yl)-2H-tetrazol-2-yl]-5-fluorobenzonitrile] | 0.2 (≈ 0.069 µg/mL) |  | 92 |  | significantly higher human metabolic stability |
